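The compound was tested at five concentrations on cells cultured in 96-well plates, with a 48-hour exposure period. GI50 marks 50% less growth. Definition used: TGI = concentration required for complete inhibition of growth.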
Tests used:
Assay in all cases: NCI-60 cell line screen, 48 h
HOP-62 NSCLC = test system: HOP-62 NSCLC
SK-OV-3 ovarian = test system: SK-OV-3 ovarian
DU-145 prostate = test system: DU-145 prostate
SF-268 CNS = test system: SF-268 CNS
SNB-19 CNS = test system: SNB-19 CNS
OVCAR-4 ovarian = test system: OVCAR-4 ovarian
MOLT-4 leukemia = test system: MOLT-4 leukemia
U251 CNS = test system: U251 CNS
IGROV1 ovarian = test system: IGROV1 ovarian
SN12C renal = test system: SN12C renal

Row | SMILES | GI50 (HOP-62 NSCLC) | TGI (HOP-62 NSCLC) | TGI (SK-OV-3 ovarian) | GI50 (DU-145 prostate) | TGI (DU-145 prostate) | GI50 (SF-268 CNS) | TGI (SF-268 CNS) | GI50 (SNB-19 CNS) | TGI (SNB-19 CNS) | GI50 (OVCAR-4 ovarian) | TGI (OVCAR-4 ovarian) | GI50 (MOLT-4 leukemia) | TGI (MOLT-4 leukemia) | TGI (U251 CNS) | GI50 (IGROV1 ovarian) | TGI (IGROV1 ovarian) | GI50 (SN12C renal) | TGI (SN12C renal) | GI50 (SK-OV-3 ovarian) | GI50 (U251 CNS)
1 | COC(C)(C)[C@@H](O)[C@H](O)C[C@H](C)C1=C2CC[C@@H]3[C@@]4(C)CC[C@@H](OC(C)=O)C(C)(C)[C@@H]4C[C@@H](OC4OC(COC(C)=O)C(O)C(O)C4O)[C@@]3(C)[C@]2(C)CC1 (stereo partly specified) | 14.3 µM | 27.4 µM | 28.7 µM | 15 µM | 28.5 µM | 10.3 µM | 25.9 µM | 12.2 µM | 25.1 µM | 10.8 µM | 23.1 µM | 5.07 µM | 23.9 µM | 22.5 µM | 13.1 µM | 26.2 µM | 13.4 µM | 26.4 µM | – | –
2 | Cc1ccc2nc3ccccc3c(NCc3ccc(Cl)cc3)c2c1 | 6.89 µM | 16.3 µM | 15.8 µM | 5.44 µM | 11.5 µM | 6.91 µM | 14.2 µM | 6.21 µM | 12.7 µM | 5.13 µM | 11.9 µM | 1.59 µM | 5.5 µM | 11.6 µM | 2.95 µM | 10.2 µM | 5.09 µM | 12 µM | 7.7 µM | 3.85 µM
3 | Cc1ccc(S(=O)(=O)Oc2ccc3c4c(c(=O)oc3c2)CCCCCC4)cc1 | > 100 µM | > 100 µM | > 100 µM | > 100 µM | > 100 µM | > 100 µM | > 100 µM | > 100 µM | > 100 µM | > 100 µM | > 100 µM | 9.57 µM | > 100 µM | > 100 µM | > 100 µM | > 100 µM | > 100 µM | > 100 µM | > 100 µM | > 100 µM
4 | CCCn1c2c(c3c(O)cccc31)C(=O)c1ccccc1-2 | 8.24 µM | 27.6 µM | > 100 µM | 23.4 µM | > 100 µM | 19.5 µM | > 100 µM | 25.5 µM | > 100 µM | 0.0961 µM | 6.12 µM | 0.0475 µM | 7.31 µM | 56.2 µM | 10.9 µM | > 100 µM | 21.9 µM | 98.5 µM | 23.7 µM | 18.2 µM
5 | C=C1C(=O)O[C@H]2[C@H]1CC/C(COC(=O)CCCCCC(=O)OC/C1=C/CC[C@@]3(C)O[C@H]3[C@H]3OC(=O)C(=C)[C@@H]3CC1)=C\CC[C@@]1(C)O[C@@H]21 | 2.34 µM | 6.46 µM | 31 µM | 3.19 µM | 12.1 µM | 3.44 µM | 14.8 µM | 4.09 µM | 19.5 µM | 2.92 µM | 15.3 µM | 0.633 µM | 4.1 µM | 9.61 µM | 2.51 µM | 9.32 µM | 2.86 µM | 11.5 µM | 12 µM | 2.64 µM
6 | C=CC(=O)N1CCC(c2ccc(C(N)=O)c(-c3ccc(Oc4ccccc4)cc3)n2)CC1 | 56.2 µM | > 100 µM | > 100 µM | 31.7 µM | > 100 µM | 50.5 µM | > 100 µM | 47.9 µM | > 100 µM | 21.6 µM | > 100 µM | 27.3 µM | > 100 µM | > 100 µM | 19.1 µM | > 100 µM | 28.2 µM | > 100 µM | 23.4 µM | 32.4 µM
7 | O=C(CCN1CCCC1)Nc1ccc2c(NCc3ccccc3)c3ccccc3nc2c1 | 0.471 µM | 2.51 µM | 2.56 µM | 0.394 µM | 1.51 µM | 0.457 µM | 1.85 µM | 0.408 µM | 1.83 µM | 0.381 µM | 1.63 µM | 0.364 µM | 2.03 µM | 1.73 µM | 0.383 µM | 1.67 µM | 0.332 µM | 1.52 µM | 0.43 µM | 0.395 µM
8 | CC1=CC2C(C(O)CC3(C)C2CC(C)C32OCOC23COCO3)C2(C)C/C(=C/O)C(=O)C=C12 (stereo unspecified) | 1.99 µM | 3.52 µM | 6.42 µM | 2.57 µM | 5.81 µM | 2.03 µM | 3.84 µM | 3.22 µM | 12 µM | 1.74 µM | 3.83 µM | 1.97 µM | 4.9 µM | 3.27 µM | 2.07 µM | 4 µM | 2.5 µM | 6.39 µM | 2.73 µM | 1.66 µM
9 | COc1cc2c3c(n(CCCN)c(=O)c2cc1OC)-c1ccc([N+](=O)[O-])cc1C3=O | 0.613 µM | 2.26 µM | 28.7 µM | 2.11 µM | 10.6 µM | 7.74 µM | 24.4 µM | 3.11 µM | 18.3 µM | 11.5 µM | 33.7 µM | 0.434 µM | 16.2 µM | 19.8 µM | – | – | 11.7 µM | 27.6 µM | 12.2 µM | 4.94 µM
